Experimental data as given in patent publication US20230391768A2, “IMIDAZOPYRIDINE DERIVATIVES AND AZA-IMIDAZOPYRIDINE DERIVATIVES AS JANUS KINASE 2 INHIBITORS AND USES THEREOF” (Dana-Farber Cancer Institute, Inc., priority 2018, published 2023).

How the values were obtained:
Test in all cases: KINOMEscan
Type in all cases: binding
[1] = target: p38-delta (Homo sapiens (Human), UniProt O15264); conditions: read-out: percent of control
Procedure: (§1) In vitro profiling of Compound I-2 (1 μM) was performed using the DiscoveRx KINOMEscan® platform.

[2] = tested on: FLT3 (ITD,F691L); conditions: 1 μM
Procedure: as §1

[3] = target: MST1R (Homo sapiens (Human), UniProt Q04912); conditions: read-out: percent of control
Procedure: as §1

[4] = target: CLK1 (Homo sapiens (Human), UniProt P49759); conditions: read-out: percent of control
Procedure: as §1

[5] = target: RSK4 (Kin.Dom.1-N-terminal) (Homo sapiens (Human), UniProt Q9UK32); conditions: read-out: percent of control
Procedure: as §1

[6] = target: NDR1 (Homo sapiens (Human), UniProt Q15208); conditions: read-out: percent of control
Procedure: as §1

[7] = target: KIT(D816V) (Homo sapiens (Human), UniProt P10721, D816V); conditions: read-out: percent of control
Procedure: as §1

[8] = target: SGK2 (Homo sapiens (Human), UniProt Q9HBY8); conditions: read-out: percent of control
Procedure: as §1

[9] = target: MERTK (Homo sapiens (Human), UniProt Q12866); conditions: read-out: percent of control
Procedure: as §1

[10] = target: AKT1 (Homo sapiens (Human), UniProt P31749); conditions: read-out: percent of control
Procedure: as §1

[11] = target: p38-gamma (Homo sapiens (Human), UniProt P53778); conditions: read-out: percent of control
Procedure: as §1

[12] = target: CDK4-cyclinD1 (Homo sapiens (Human), UniProt P11802); conditions: read-out: percent of control
Procedure: as §1

[13] = target: NEK10 (Homo sapiens (Human), UniProt Q6ZWH5); conditions: read-out: percent of control
Procedure: as §1

[14] = target: PCTK2 (Homo sapiens (Human), UniProt Q00537); conditions: read-out: percent of control
Procedure: as §1

[15] = target: PDGFRB (Homo sapiens (Human), UniProt P09619); conditions: read-out: percent of control
Procedure: as §1

[16] = target: NEK1 (Homo sapiens (Human), UniProt Q96PY6); conditions: read-out: percent of control
Procedure: as §1

[17] = target: MYLK (Homo sapiens (Human), UniProt Q15746); conditions: read-out: percent of control
Procedure: as §1

[18] = target: VPS34 (Homo sapiens (Human), UniProt Q8NEB9); conditions: read-out: percent of control
Procedure: as §1

[19] = target: STK33 (Homo sapiens (Human), UniProt Q9BYT3); conditions: read-out: percent of control
Procedure: as §1

[20] = target: IRAK1 (Homo sapiens (Human), UniProt P51617); conditions: read-out: percent of control
Procedure: as §1

[21] = target: DAPK1 (Homo sapiens (Human), UniProt P53355); conditions: read-out: percent of control
Procedure: as §1

[22] = target: CSNK1D (Homo sapiens (Human), UniProt P48730); conditions: read-out: percent of control
Procedure: as §1

[23] = target: SIK (Homo sapiens (Human), UniProt P57059); conditions: read-out: percent of control
Procedure: as §1

[24] = target: NLK (Homo sapiens (Human), UniProt Q9UBE8); conditions: read-out: percent of control
Procedure: as §1

[25] = target: EPHA5 (Homo sapiens (Human), UniProt P54756); conditions: read-out: percent of control
Procedure: as §1

[26] = target: RIOK1 (Homo sapiens (Human), UniProt Q9BRS2); conditions: read-out: percent of control
Procedure: as §1

[27] = target: CSF1R (Homo sapiens (Human), UniProt P07333); conditions: read-out: percent of control
Procedure: as §1

[28] = target: CDKL2 (Homo sapiens (Human), UniProt Q92772); conditions: read-out: percent of control
Procedure: as §1

[29] = target: PIP5K2B (Homo sapiens (Human), UniProt P78356); conditions: read-out: percent of control
Procedure: as §1

[30] = target: MAK (Homo sapiens (Human), UniProt P20794); conditions: read-out: percent of control
Procedure: as §1

[31] = target: TRKB (Homo sapiens (Human), UniProt Q16620); conditions: read-out: percent of control
Procedure: as §1

[32] = target: CAMK2G (Homo sapiens (Human), UniProt Q13555); conditions: read-out: percent of control
Procedure: as §1

[33] = target: MRCKB (Homo sapiens (Human), UniProt Q9Y5S2); conditions: read-out: percent of control
Procedure: as §1

[34] = target: ABL1(F317I)-nonphosphorylated (Homo sapiens (Human), UniProt P00519, F317I); conditions: read-out: percent of control
Procedure: as §1

[35] = target: BRSK1 (Homo sapiens (Human), UniProt Q8TDC3); conditions: read-out: percent of control
Procedure: as §1

[36] = target: ACVRL1 (Homo sapiens (Human), UniProt P37023); conditions: read-out: percent of control
Procedure: as §1

[37] = target: ABL1(Q252H)-nonphosphorylated (Homo sapiens (Human), UniProt P00519, Q252H); conditions: read-out: percent of control
Procedure: as §1

[38] = target: FGR (Homo sapiens (Human), UniProt P09769); conditions: read-out: percent of control
Procedure: as §1

[39] = target: PIP5K2C (Homo sapiens (Human), UniProt Q8TBX8); conditions: read-out: percent of control
Procedure: as §1

Sequence of NEK10 (Q6ZWH5 whole entry): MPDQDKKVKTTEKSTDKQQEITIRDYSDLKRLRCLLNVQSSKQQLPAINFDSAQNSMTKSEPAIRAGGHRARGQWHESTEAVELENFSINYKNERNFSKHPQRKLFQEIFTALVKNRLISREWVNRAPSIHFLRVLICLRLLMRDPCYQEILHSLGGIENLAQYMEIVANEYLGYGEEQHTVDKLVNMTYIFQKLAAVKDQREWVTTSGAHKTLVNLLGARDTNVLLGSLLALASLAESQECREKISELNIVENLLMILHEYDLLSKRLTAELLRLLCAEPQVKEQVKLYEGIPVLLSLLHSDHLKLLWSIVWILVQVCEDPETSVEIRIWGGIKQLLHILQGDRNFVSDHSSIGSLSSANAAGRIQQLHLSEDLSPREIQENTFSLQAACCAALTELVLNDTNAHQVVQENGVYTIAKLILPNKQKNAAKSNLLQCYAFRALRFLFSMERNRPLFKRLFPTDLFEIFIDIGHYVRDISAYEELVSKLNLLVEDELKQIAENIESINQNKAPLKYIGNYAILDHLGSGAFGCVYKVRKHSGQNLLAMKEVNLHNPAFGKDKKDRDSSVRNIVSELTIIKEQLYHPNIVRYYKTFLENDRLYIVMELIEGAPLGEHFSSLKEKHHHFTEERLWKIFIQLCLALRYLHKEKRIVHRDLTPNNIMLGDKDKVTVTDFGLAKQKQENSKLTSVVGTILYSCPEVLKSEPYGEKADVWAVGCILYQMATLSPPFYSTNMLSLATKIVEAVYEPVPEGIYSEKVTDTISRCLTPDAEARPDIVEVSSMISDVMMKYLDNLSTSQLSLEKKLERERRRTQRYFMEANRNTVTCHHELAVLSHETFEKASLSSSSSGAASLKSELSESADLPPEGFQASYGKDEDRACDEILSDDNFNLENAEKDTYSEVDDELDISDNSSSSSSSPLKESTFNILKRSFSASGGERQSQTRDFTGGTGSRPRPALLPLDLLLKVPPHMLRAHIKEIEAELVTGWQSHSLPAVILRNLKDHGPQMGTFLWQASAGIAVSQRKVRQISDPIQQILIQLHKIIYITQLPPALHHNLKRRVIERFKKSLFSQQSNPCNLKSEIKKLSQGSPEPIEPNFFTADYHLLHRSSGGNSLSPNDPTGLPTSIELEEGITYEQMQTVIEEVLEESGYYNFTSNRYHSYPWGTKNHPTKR
Sequence of IRAK1 (P51617 whole entry): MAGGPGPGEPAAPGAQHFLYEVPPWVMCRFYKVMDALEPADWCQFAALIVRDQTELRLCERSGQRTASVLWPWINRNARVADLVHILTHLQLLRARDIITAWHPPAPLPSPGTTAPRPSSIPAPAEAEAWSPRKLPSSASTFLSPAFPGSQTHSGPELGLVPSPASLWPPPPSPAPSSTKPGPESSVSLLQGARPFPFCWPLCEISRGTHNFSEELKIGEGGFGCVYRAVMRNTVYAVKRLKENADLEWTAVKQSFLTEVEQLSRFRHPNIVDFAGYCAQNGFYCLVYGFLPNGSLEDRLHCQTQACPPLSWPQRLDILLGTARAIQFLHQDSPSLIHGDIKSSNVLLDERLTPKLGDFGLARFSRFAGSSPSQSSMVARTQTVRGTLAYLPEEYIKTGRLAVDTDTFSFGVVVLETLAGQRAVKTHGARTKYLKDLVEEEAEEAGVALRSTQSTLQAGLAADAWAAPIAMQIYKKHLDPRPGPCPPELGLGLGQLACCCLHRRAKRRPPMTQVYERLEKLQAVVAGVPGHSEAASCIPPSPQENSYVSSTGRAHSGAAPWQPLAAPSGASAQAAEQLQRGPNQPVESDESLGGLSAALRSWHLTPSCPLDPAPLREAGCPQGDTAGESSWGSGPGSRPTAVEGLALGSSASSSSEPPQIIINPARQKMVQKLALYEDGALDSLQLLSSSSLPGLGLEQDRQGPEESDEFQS
Sequence of CAMK2G (Q13555 whole entry): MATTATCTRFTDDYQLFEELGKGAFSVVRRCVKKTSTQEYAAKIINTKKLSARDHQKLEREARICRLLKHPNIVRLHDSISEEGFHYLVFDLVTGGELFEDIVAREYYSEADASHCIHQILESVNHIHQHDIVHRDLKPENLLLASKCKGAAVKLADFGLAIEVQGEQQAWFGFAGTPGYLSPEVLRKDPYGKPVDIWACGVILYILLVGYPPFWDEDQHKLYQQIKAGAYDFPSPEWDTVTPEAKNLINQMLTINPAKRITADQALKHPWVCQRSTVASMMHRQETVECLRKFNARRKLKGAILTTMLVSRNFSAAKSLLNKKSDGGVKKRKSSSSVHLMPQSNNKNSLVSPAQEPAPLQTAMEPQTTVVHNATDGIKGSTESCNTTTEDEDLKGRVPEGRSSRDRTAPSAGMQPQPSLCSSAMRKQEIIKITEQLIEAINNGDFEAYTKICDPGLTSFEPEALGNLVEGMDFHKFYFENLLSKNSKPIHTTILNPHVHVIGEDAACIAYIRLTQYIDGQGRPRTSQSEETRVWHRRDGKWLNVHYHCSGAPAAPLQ
Sequence of PCTK2 (Q00537 whole entry): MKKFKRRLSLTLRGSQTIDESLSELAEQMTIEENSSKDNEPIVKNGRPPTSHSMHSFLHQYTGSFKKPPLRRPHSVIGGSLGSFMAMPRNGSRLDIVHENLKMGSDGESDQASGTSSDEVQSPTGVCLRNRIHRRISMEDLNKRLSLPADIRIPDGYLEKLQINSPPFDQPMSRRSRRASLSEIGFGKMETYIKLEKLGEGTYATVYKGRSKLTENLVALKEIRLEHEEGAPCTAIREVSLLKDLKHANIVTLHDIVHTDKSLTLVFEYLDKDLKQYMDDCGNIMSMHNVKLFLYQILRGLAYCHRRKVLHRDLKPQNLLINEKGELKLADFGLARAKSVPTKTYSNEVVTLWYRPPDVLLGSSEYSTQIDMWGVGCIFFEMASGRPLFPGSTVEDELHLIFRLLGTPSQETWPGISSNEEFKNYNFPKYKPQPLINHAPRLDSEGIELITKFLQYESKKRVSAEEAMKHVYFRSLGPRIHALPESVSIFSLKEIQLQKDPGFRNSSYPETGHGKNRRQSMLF
Sequence of BRSK1 (Q8TDC3 whole entry): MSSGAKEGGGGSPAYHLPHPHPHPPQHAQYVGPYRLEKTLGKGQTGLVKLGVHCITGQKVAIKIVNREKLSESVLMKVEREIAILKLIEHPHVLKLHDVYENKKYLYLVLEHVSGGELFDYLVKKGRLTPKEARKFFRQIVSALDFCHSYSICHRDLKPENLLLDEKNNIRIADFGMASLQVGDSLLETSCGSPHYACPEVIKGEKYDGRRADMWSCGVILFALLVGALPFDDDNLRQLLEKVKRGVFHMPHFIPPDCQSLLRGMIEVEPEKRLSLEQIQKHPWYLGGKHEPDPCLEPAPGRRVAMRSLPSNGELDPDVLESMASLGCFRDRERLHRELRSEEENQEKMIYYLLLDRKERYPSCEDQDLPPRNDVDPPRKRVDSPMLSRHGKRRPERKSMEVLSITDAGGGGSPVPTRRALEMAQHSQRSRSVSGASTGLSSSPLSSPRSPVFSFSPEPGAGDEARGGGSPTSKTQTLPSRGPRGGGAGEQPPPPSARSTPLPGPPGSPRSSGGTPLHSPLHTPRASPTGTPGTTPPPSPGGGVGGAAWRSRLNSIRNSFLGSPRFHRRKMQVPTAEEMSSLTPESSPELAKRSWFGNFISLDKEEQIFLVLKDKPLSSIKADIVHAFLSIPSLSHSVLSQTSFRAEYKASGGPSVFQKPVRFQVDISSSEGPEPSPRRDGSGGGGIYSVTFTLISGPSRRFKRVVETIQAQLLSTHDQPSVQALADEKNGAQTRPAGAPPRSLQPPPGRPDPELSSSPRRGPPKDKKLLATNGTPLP
Sequence of SGK2 (Q9HBY8 whole entry): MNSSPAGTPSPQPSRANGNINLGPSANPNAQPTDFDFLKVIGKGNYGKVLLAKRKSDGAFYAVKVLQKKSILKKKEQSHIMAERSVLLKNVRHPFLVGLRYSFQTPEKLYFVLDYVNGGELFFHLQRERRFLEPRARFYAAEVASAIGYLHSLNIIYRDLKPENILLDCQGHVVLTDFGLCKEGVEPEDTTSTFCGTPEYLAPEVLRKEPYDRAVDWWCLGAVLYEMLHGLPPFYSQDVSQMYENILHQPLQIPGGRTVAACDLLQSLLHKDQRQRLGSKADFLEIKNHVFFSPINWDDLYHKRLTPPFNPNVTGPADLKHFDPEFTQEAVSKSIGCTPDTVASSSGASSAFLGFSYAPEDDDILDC
Sequence of CDK4-cyclinD1 (P11802 whole entry): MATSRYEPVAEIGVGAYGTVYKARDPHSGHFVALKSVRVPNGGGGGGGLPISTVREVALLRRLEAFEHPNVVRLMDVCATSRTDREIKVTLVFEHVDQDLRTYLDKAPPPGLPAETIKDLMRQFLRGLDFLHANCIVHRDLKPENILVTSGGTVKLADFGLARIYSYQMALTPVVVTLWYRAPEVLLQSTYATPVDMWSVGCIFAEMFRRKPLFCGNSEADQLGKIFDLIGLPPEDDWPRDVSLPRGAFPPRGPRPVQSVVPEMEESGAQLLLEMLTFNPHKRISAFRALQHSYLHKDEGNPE
Sequence of CDK4-cyclinD1 (P24385 whole entry partner): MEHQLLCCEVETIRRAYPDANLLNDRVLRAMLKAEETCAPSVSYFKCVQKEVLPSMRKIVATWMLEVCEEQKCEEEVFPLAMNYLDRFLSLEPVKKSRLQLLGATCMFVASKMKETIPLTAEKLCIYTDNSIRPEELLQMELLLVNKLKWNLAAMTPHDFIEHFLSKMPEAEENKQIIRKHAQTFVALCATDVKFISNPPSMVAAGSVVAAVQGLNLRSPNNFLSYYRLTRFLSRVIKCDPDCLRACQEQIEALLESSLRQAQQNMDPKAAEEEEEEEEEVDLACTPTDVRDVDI
Sequence of RSK4 (Kin.Dom.1-N-terminal) (Q9UK32 73-330): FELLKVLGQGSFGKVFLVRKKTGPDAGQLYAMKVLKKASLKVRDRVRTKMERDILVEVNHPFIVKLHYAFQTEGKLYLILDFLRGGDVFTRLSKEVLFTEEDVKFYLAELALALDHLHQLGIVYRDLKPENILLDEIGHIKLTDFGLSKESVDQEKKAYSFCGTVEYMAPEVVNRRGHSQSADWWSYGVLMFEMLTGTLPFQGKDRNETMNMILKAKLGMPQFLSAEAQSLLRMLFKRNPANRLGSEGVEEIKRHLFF

Compound `CCN1CCN(Cc2cc(NC(=O)c3ccc(C)c(-c4ccc5nc(NC(=O)C6CC6)cn5n4)c3)cc(C(F)(F)F)c2)CC1` [Compound I-2, 3-(2-(cyclopropanecarboxamido)imidazo[1,2-b]pyridazin-6-yl)-N-(3-((4-ethylpiperazin-1-yl)methyl)-5-(trifluoromethyl)phenyl)-4-methylbenzamide] has a remaining binding at 1 µM [1] of 41%, a percent of control [2] of 12% and a remaining binding at 1 µM [3] of 83%. The remaining binding at 1 µM [4] was 7.9%, the remaining binding at 1 µM [5] was 93% and the remaining binding at 1 µM [6] was 100%. The remaining binding at 1 µM [7] was 32%, the remaining binding at 1 µM [8] was 87% and the remaining binding at 1 µM [9] was 0.25%. The remaining binding at 1 µM [10] was 90%, the remaining binding at 1 µM [11] was 0% and the remaining binding at 1 µM [12] was 19%. It also gave a remaining binding at 1 µM [13] of 75%, a remaining binding at 1 µM [14] of 1.8% and a remaining binding at 1 µM [15] of 0%. It also gave a remaining binding at 1 µM [16] of 95%, a remaining binding at 1 µM [17] of 65% and a remaining binding at 1 µM [18] of 91%. For the same compound, the remaining binding at 1 µM [19] was 70%, the remaining binding at 1 µM [20] was 18% and the remaining binding at 1 µM [21] was 100%. It also gave a remaining binding at 1 µM [22] of 100%, a remaining binding at 1 µM [23] of 100% and a remaining binding at 1 µM [24] of 95%. The remaining binding at 1 µM [25] was 2.3%, the remaining binding at 1 µM [26] was 100% and the remaining binding at 1 µM [27] was 0.05%. The remaining binding at 1 µM [28] was 0%, the remaining binding at 1 µM [29] was 93% and the remaining binding at 1 µM [30] was 11%. The remaining binding at 1 µM [31] was 0.05%, the remaining binding at 1 µM [32] was 94% and the remaining binding at 1 µM [33] was 100%. The remaining binding at 1 µM [34] was 0%, the remaining binding at 1 µM [35] was 100% and the remaining binding at 1 µM [36] was 91%. For the same compound, the remaining binding at 1 µM [37] was 0%, the remaining binding at 1 µM [38] was 0.15% and the remaining binding at 1 µM [39] was 5.7%.

`CCN1CCN(Cc2cc(NC(=O)c3ccc(C)c(-c4ccc5nc(NC(=O)C6CC6)cn5c4)c3)cc(C(F)(F)F)c2)CC1` [Compound I-6, 3-(2-(cyclopropanecarboxamido)imidazo[1,2-a]pyridin-6-yl)-N-(3-((4-ethylpiperazin-1-yl)methyl)-5-(trifluoromethyl)phenyl)-4-methylbenzamide] was tested, and the remaining binding at 1 µM [1] was 32%, the percent of control [2] was 34% and the remaining binding at 1 µM [3] was 100%. The remaining binding at 1 µM [4] was 20%, the remaining binding at 1 µM [5] was 87% and the remaining binding at 1 µM [6] was 85%. For the same compound, the remaining binding at 1 µM [7] was 22%, the remaining binding at 1 µM [8] was 76% and the remaining binding at 1 µM [9] was 0.25%. It also gave a remaining binding at 1 µM [10] of 90%, a remaining binding at 1 µM [11] of 9.4% and a remaining binding at 1 µM [12] of 17%. For the same compound, the remaining binding at 1 µM [13] was 62%, the remaining binding at 1 µM [14] was 1.3% and the remaining binding at 1 µM [15] was 0%. The remaining binding at 1 µM [16] was 97%, the remaining binding at 1 µM [17] was 79% and the remaining binding at 1 µM [18] was 93%. For the same compound, the remaining binding at 1 µM [19] was 100%, the remaining binding at 1 µM [20] was 29% and the remaining binding at 1 µM [21] was 100%. It also gave a remaining binding at 1 µM [22] of 100%, a remaining binding at 1 µM [23] of 100% and a remaining binding at 1 µM [24] of 100%. For the same compound, the remaining binding at 1 µM [25] was 2.5%, the remaining binding at 1 µM [26] was 95% and the remaining binding at 1 µM [27] was 0%. The remaining binding at 1 µM [28] was 0.8%, the remaining binding at 1 µM [29] was 86% and the remaining binding at 1 µM [30] was 22%. The remaining binding at 1 µM [31] was 0%, the remaining binding at 1 µM [32] was 95% and the remaining binding at 1 µM [33] was 100%. For the same compound, the remaining binding at 1 µM [34] was 0%, the remaining binding at 1 µM [35] was 96% and the remaining binding at 1 µM [36] was 92%. The remaining binding at 1 µM [37] was 0.15%, the remaining binding at 1 µM [38] was 0% and the remaining binding at 1 µM [39] was 46%.
